This is an account of results in PubChem BioAssay (NCI).

Several values for one entry are separate records, joined by “and”; a condition that tells them apart may be missing. Equal entries are not always repeated.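 All cell lines were grown in 96-well plates and treated with compound for 48 hours. Here, GI50 denotes the concentration required for 50% inhibition of growth. At the TGI there is no net growth.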

Test systems include HCC-2998 colon; NCI-H226 lung; HOP-92 NSCLC; OVCAR-5 ovarian; EKVX NSCLC; OVCAR-4 ovarian; HOP-62 NSCLC; NCI-H522 lung; RPMI-8226 leukemia; MALME-3M melanoma.
What all share (assay): inhibition of tumour cell growth, NCI panel, 48 h

Consider `COc1cc(/C=C/C(=O)CC(=O)/C=C/c2ccc(OC(=O)CCNC34CC5CC(CC(C5)C3)C4)c(OC)c2)ccc1OC(=O)CCNC12CC3CC(CC(C3)C1)C2`, for which the GI50 with HCC-2998 colon was 1930 nM; in the assay on NCI-H226 lung it was 11.8 µM; in the assay with HOP-92 NSCLC, 2.64 µM; in the assay on OVCAR-5 ovarian, 4.34 µM; in the assay on EKVX NSCLC it was 4410 nM; in the assay on OVCAR-4 ovarian, 11 µM. For the same compound, the GI50 was 3990 nM in the assay with HOP-62 NSCLC, 4270 nM with NCI-H522 lung, 2100 nM with RPMI-8226 leukemia and 5280 nM in the assay on MALME-3M melanoma. Also, the TGI with HCC-2998 colon is 4.37 µM; in the assay on NCI-H226 lung, 30.5 µM; in the assay with HOP-92 NSCLC, 17.6 µM; with OVCAR-5 ovarian, 16.8 µM; in the assay on EKVX NSCLC, 12.9 µM; in the assay on OVCAR-4 ovarian, above 100 µM. Also, the TGI came out at 16.6 µM in the assay on HOP-62 NSCLC, 16.1 µM in the assay on NCI-H522 lung, 6.01 µM with RPMI-8226 leukemia and 17.9 µM with MALME-3M melanoma.

`C/C(=C\c1ccn(-c2ccc(N)cc2C(F)(F)F)n1)[C@@H]1C[C@@H]2O[C@]2(C)CCC[C@H](C)[C@H](O)[C@@H](C)C(=O)C(C)(C)[C@@H](O)CC(=O)O1`: the GI50 in the assay with HCC-2998 colon was 306 nM; in the assay with NCI-H226 lung, 6.35 µM; in the assay on HOP-92 NSCLC, 1.27 µM; in the assay on OVCAR-5 ovarian, 0.519 µM; in the assay on EKVX NSCLC, 747 nM; with OVCAR-4 ovarian, above 11.1 µM. The GI50 is 490 nM with HOP-62 NSCLC, 178 nM in the assay with NCI-H522 lung, 374 nM in the assay with RPMI-8226 leukemia and 736 nM in the assay with MALME-3M melanoma. The TGI in the assay with HCC-2998 colon was 6.23 µM; in the assay with NCI-H226 lung, above 11.1 µM; with HOP-92 NSCLC, above 11.1 µM; in the assay on OVCAR-5 ovarian, above 11.1 µM; in the assay on EKVX NSCLC it was above 11.1 µM; with OVCAR-4 ovarian, above 11.1 µM. The TGI in the assay on HOP-62 NSCLC is 9.98 µM; with NCI-H522 lung, 0.428 µM; in the assay on RPMI-8226 leukemia, above 11.1 µM; in the assay with MALME-3M melanoma it was above 11.1 µM.

Take `CN1CCN(Cc2ccc(NC(=O)c3[nH]ncc3Nc3ccnc4ccsc34)cc2)CC1`: the GI50 in the assay with HCC-2998 colon was 2750 nM; with NCI-H226 lung it was 2.35 µM; with HOP-92 NSCLC it was 3.89 µM; in the assay on OVCAR-5 ovarian it was 4.08 µM; in the assay with EKVX NSCLC, 2740 nM; with OVCAR-4 ovarian it was 2.32 µM. In addition, the GI50 in the assay on HOP-62 NSCLC was 2820 nM; in the assay with NCI-H522 lung it was 1980 nM; in the assay on RPMI-8226 leukemia it was 2950 nM; in the assay on MALME-3M melanoma it was 3440 nM. For the same compound, the TGI with HCC-2998 colon worked out at 10.1 µM; in the assay with NCI-H226 lung it was 13.4 µM; in the assay on HOP-92 NSCLC, 8.92 µM; in the assay on OVCAR-5 ovarian it was 14.7 µM; in the assay on EKVX NSCLC, 9.81 µM; in the assay on OVCAR-4 ovarian it was 7.47 µM. For the same compound, the TGI in the assay with HOP-62 NSCLC is 14.2 µM; in the assay with NCI-H522 lung it was 13.5 µM; in the assay on RPMI-8226 leukemia it was 7.18 µM; with MALME-3M melanoma, 13.7 µM.

Consider `Cc1cc(-c2cc(C)c(O)c(C(C)(C)C)c2)cc(C(C)(C)C)c1O`, for which the TGI with HCC-2998 colon was 15.4 µM and 18.7 µM; in the assay on NCI-H226 lung it was 22.6 µM and 35.9 µM; in the assay with HOP-92 NSCLC, 29.8 µM and 17.5 µM; with OVCAR-5 ovarian it was 24.4 µM and 28.4 µM; in the assay with EKVX NSCLC, 22.7 µM and 28.4 µM; with OVCAR-4 ovarian, 27.6 µM and 23.8 µM. In addition, the TGI in the assay on HOP-62 NSCLC is 34.5 µM and 31 µM; in the assay with NCI-H522 lung, 22.5 µM and 28.2 µM; with RPMI-8226 leukemia, 45.9 µM and 50.4 µM; with MALME-3M melanoma, 28.3 µM and 41.1 µM. The GI50 in the assay with HOP-92 NSCLC was 15.1 µM and 4.92 µM.

As for `CCOC(=O)c1ccc(C(O)CC(=O)OC(C)(C)C)[nH]1` (stereo unspecified), the GI50 in the assay on HCC-2998 colon was 33000 nM; in the assay on NCI-H226 lung it was 94.1 µM; in the assay with HOP-92 NSCLC it was 17.9 µM; in the assay with OVCAR-5 ovarian, 32.3 µM; in the assay on EKVX NSCLC, 22700 nM; in the assay on OVCAR-4 ovarian, 38.1 µM. Besides, the GI50 in the assay on HOP-62 NSCLC is 45100 nM; in the assay with NCI-H522 lung, 9500 nM; with RPMI-8226 leukemia, above 100000 nM; in the assay with MALME-3M melanoma, 692 nM. Besides, the TGI in the assay on HCC-2998 colon is above 100 µM; with NCI-H226 lung it was above 100 µM; in the assay with HOP-92 NSCLC, 55.8 µM; in the assay on OVCAR-5 ovarian, above 100 µM; with EKVX NSCLC it was 49.6 µM; with OVCAR-4 ovarian it was above 100 µM. Besides, the TGI in the assay with HOP-62 NSCLC was above 100 µM; in the assay with NCI-H522 lung, 25.9 µM; with RPMI-8226 leukemia, above 100 µM; in the assay with MALME-3M melanoma it was 24.8 µM.

Take `N#C/C(=C\c1ccc(Cl)cc1)n1nnc2cc(F)c(F)cc21`: the GI50 with HCC-2998 colon is 1740 nM; with NCI-H226 lung, 2.02 µM; with HOP-92 NSCLC, 1.07 µM; with OVCAR-5 ovarian it was 1.9 µM; in the assay with EKVX NSCLC, 1670 nM; in the assay on OVCAR-4 ovarian it was 1.59 µM. Besides, the GI50 was 2290 nM in the assay with HOP-62 NSCLC, 1590 nM in the assay with NCI-H522 lung, 1390 nM in the assay with RPMI-8226 leukemia and 2060 nM in the assay on MALME-3M melanoma. For the same compound, the TGI is 3.29 µM with HCC-2998 colon; 4.54 µM in the assay with NCI-H226 lung; 2.56 µM with HOP-92 NSCLC; 3.81 µM with OVCAR-5 ovarian; 3.12 µM in the assay on EKVX NSCLC; 3.48 µM with OVCAR-4 ovarian. For the same compound, the TGI with HOP-62 NSCLC was 6.32 µM; in the assay on NCI-H522 lung it was 3.85 µM; in the assay on RPMI-8226 leukemia, 5.29 µM; in the assay on MALME-3M melanoma it was 5.34 µM.

Consider `CNC(=O)c1ccc(Nc2nc(OC3CCCC3)c3c(-c4ccc5nc(C)oc5c4)c[nH]c3n2)c(OC)c1`, for which the GI50 is above 100000 nM with HCC-2998 colon; 9.04 µM in the assay with NCI-H226 lung; 2.54 µM in the assay on HOP-92 NSCLC; 64.2 µM in the assay on OVCAR-5 ovarian; above 100000 nM in the assay with EKVX NSCLC; 5.59 µM in the assay with OVCAR-4 ovarian. Besides, the GI50 was above 100000 nM with HOP-62 NSCLC, 1670 nM with NCI-H522 lung, 481 nM in the assay on RPMI-8226 leukemia and 21600 nM in the assay on MALME-3M melanoma. Further, the TGI in the assay with HCC-2998 colon, in the assay on NCI-H226 lung, in the assay on HOP-92 NSCLC, in the assay on OVCAR-5 ovarian, with EKVX NSCLC and in the assay with OVCAR-4 ovarian was above 100 µM throughout. The TGI in the assay on HOP-62 NSCLC was above 100 µM; in the assay on NCI-H522 lung, above 100 µM; in the assay on RPMI-8226 leukemia, above 20.4 µM; in the assay with MALME-3M melanoma, above 100 µM.
